{
  "source": "paper PMC10518257",
  "about": "(Nature Cancer, 2023)",
  "key": {"[1]": {"target": "T1, panel of 255 (vepafestinib) or 256 (all other inhibitors) recombinant kinases (Homo sapiens, UniProt P35968)", "T1 construct": "purchased Carna Biosciences", "experiment": "Kinase selectivity profiling at a single concentration (Carna Biosciences)", "type": "biochemical", "conditions": "17 nM"}, "[2]": {"target": "T2, panel of 255 (vepafestinib) or 256 (all other inhibitors) recombinant kinases (Homo sapiens, UniProt P11362)", "T2 construct": "purchased Carna Biosciences", "T2 sequence (P11362 22-822)": "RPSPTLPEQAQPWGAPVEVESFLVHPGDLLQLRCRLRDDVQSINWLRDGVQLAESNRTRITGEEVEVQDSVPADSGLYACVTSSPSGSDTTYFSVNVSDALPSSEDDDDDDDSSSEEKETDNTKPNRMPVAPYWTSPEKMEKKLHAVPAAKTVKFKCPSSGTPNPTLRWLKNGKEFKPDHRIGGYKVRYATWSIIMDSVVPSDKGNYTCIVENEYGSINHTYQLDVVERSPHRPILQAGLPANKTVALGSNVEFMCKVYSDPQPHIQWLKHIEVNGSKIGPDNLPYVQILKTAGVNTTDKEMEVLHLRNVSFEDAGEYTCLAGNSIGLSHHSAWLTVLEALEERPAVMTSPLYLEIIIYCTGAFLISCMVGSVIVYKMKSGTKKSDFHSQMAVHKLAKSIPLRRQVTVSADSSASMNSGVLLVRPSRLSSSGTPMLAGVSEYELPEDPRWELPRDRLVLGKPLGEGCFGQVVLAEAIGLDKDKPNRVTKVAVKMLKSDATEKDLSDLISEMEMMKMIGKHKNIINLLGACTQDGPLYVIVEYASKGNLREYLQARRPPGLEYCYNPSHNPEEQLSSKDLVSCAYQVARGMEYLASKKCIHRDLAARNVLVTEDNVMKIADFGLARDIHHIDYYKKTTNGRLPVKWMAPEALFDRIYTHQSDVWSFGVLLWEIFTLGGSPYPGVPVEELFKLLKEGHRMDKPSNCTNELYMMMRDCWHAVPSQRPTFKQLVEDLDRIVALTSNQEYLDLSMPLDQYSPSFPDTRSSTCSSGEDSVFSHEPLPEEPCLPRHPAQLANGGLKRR", "experiment": "Kinase selectivity profiling at a single concentration (Carna Biosciences)", "type": "biochemical"}, "[3]": {"target": "T3, panel of 255 (vepafestinib) or 256 (all other inhibitors) recombinant kinases (Homo sapiens, UniProt P36888)", "T3 construct": "purchased Carna Biosciences", "T3 sequence (P36888 27-993)": "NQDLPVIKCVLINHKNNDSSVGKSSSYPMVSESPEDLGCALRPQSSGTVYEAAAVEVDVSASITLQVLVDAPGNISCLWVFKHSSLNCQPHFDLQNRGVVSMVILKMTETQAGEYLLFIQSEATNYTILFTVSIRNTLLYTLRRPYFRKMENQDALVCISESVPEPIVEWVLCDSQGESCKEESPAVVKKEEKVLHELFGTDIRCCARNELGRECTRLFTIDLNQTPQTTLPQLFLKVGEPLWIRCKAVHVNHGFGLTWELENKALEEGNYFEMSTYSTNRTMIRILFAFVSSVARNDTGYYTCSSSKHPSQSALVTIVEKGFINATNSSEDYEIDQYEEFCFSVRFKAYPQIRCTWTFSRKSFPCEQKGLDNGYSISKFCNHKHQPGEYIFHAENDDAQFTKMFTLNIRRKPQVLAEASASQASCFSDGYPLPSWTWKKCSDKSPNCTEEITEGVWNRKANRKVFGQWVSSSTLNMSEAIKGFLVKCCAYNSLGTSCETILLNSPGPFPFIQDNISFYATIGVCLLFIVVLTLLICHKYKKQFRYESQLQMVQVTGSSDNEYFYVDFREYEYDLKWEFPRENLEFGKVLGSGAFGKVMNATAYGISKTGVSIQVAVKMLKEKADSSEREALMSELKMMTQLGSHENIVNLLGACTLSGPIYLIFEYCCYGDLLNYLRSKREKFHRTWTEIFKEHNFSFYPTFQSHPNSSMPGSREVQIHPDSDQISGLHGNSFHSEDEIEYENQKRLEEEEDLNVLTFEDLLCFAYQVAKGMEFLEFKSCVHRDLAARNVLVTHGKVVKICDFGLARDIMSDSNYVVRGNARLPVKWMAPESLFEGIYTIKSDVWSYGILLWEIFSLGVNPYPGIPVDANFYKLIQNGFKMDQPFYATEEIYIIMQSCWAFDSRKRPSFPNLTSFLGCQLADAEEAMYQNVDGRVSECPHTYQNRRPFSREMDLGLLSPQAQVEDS", "experiment": "Kinase selectivity profiling at a single concentration (Carna Biosciences)", "type": "biochemical"}, "[4]": {"target": "T4, panel of 255 (vepafestinib) or 256 (all other inhibitors) recombinant kinases (Homo sapiens, UniProt P07949)", "T4 construct": "purchased Carna Biosciences", "experiment": "Kinase selectivity profiling at a single concentration (Carna Biosciences)", "type": "biochemical"}, "[5]": {"target": "T5, panel of 255 (vepafestinib) or 256 (all other inhibitors) recombinant kinases (Homo sapiens, UniProt P22607)", "T5 construct": "purchased Carna Biosciences", "T5 sequence (P22607 23-806)": "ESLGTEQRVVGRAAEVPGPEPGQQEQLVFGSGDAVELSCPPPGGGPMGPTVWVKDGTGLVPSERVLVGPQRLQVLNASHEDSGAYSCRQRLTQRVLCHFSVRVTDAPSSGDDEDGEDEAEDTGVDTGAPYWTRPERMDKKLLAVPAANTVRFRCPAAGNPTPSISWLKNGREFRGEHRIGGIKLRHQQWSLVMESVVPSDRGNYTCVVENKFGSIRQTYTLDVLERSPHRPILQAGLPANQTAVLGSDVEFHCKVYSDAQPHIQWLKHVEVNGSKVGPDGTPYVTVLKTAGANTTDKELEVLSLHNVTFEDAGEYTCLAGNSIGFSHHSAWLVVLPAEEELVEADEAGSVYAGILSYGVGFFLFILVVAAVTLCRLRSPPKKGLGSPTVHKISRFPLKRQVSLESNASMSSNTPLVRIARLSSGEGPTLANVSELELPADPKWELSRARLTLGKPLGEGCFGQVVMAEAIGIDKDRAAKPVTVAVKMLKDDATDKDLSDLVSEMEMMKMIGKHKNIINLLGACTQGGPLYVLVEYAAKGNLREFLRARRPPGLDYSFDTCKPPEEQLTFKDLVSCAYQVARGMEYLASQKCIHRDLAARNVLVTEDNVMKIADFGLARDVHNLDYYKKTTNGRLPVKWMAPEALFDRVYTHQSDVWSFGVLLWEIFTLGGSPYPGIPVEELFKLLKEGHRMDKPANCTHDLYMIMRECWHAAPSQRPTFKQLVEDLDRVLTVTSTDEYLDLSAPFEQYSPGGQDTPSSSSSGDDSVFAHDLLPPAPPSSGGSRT", "experiment": "Kinase selectivity profiling at a single concentration (Carna Biosciences)", "type": "biochemical"}, "[6]": {"target": "T6, panel of 255 (vepafestinib) or 256 (all other inhibitors) recombinant kinases (Homo sapiens, UniProt P21802)", "T6 construct": "purchased Carna Biosciences", "T6 sequence (P21802 22-821)": "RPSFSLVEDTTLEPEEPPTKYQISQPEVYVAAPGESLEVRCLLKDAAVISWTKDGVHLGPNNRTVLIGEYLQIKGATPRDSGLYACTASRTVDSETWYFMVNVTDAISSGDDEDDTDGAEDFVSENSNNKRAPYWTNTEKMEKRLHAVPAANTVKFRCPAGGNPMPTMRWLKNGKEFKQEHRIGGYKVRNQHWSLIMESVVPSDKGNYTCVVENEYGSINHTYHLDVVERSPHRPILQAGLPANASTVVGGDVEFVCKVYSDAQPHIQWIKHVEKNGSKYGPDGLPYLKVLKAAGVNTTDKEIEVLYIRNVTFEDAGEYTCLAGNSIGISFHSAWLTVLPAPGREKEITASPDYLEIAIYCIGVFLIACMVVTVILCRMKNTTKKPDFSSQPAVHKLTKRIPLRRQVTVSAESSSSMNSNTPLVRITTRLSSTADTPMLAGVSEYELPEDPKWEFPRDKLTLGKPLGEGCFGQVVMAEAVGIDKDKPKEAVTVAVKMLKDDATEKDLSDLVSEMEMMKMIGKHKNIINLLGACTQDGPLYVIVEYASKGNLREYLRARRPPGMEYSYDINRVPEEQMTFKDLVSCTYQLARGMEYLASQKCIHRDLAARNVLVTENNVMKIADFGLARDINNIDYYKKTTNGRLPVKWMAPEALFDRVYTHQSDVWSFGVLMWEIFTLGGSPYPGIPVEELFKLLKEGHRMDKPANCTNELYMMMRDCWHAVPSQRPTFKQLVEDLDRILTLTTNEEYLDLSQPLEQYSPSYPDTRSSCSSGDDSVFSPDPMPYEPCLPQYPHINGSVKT", "experiment": "Kinase selectivity profiling at a single concentration (Carna Biosciences)", "type": "biochemical"}, "[7]": {"target": "T7, panel of 255 (vepafestinib) or 256 (all other inhibitors) recombinant kinases (Homo sapiens, UniProt Q08345)", "T7 construct": "purchased Carna Biosciences", "T7 sequence (Q08345 19-913)": "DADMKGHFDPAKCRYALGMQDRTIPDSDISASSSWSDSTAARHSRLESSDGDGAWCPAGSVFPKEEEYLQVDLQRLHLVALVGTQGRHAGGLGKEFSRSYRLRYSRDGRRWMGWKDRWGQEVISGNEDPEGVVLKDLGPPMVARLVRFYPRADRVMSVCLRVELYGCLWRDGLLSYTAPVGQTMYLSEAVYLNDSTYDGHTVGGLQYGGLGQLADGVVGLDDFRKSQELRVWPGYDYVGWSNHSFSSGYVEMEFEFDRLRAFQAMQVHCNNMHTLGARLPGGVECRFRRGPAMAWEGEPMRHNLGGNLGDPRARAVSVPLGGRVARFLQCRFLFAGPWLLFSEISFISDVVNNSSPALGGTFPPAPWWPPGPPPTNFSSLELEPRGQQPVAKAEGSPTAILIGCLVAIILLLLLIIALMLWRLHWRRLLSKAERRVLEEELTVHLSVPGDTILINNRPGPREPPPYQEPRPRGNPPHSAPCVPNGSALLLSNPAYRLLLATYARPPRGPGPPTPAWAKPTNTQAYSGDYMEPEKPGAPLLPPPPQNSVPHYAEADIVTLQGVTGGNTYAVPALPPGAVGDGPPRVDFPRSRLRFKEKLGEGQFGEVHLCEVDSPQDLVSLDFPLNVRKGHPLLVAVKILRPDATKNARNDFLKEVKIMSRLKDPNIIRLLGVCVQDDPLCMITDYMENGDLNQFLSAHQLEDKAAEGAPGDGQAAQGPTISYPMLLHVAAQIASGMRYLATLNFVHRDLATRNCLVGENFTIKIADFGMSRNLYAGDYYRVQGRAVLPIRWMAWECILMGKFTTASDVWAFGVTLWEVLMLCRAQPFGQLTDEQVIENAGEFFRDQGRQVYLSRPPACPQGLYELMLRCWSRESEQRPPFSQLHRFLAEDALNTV", "experiment": "Kinase selectivity profiling at a single concentration (Carna Biosciences)", "type": "biochemical"}, "[8]": {"target": "T8, panel of 255 (vepafestinib) or 256 (all other inhibitors) recombinant kinases (Homo sapiens, UniProt P09619)", "T8 construct": "purchased Carna Biosciences", "experiment": "Kinase selectivity profiling at a single concentration (Carna Biosciences)", "type": "biochemical"}, "[9]": {"test_system": "ECLC5 luciferase cells implanted intracranially", "experiment": "Intracranial efficacy study", "type": "in vivo, NSG mice", "conditions": "for Area Under Curve Mean: Fig. 8e (middle panel) ECLC5 luminescence; for Luminescence Data: Fig. 8e ECLC5 intracranial, individual animals"}, "[10]": {"target": "T9, panel of 255 (vepafestinib) or 256 (all other inhibitors) recombinant kinases (Homo sapiens, UniProt O14757)", "T9 construct": "purchased Carna Biosciences", "T9 sequence (O14757 whole entry)": "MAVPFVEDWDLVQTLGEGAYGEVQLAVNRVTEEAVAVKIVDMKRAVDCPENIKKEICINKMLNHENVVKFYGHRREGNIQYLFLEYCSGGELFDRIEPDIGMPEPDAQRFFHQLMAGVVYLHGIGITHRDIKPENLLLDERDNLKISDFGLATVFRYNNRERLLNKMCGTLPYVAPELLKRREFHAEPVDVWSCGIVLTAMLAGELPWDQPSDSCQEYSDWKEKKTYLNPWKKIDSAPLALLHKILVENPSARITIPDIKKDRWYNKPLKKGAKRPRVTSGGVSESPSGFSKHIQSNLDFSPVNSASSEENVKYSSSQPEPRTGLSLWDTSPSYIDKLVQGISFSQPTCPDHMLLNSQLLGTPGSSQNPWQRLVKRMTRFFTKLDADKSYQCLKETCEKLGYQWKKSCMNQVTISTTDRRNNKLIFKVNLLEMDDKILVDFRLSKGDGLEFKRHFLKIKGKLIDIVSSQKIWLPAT", "experiment": "Kinase selectivity profiling at a single concentration (Carna Biosciences)", "type": "biochemical", "conditions": "22 nM"}, "[11]": {"target": "T10, panel of 255 (vepafestinib) or 256 (all other inhibitors) recombinant kinases (Homo sapiens, UniProt Q15375)", "T10 construct": "purchased Carna Biosciences", "experiment": "Kinase selectivity profiling at a single concentration (Carna Biosciences)", "type": "biochemical", "conditions": "22 nM"}, "[12]": {"target": "T11, panel of 255 (vepafestinib) or 256 (all other inhibitors) recombinant kinases (Homo sapiens, UniProt Q06418)", "T11 construct": "purchased Carna Biosciences", "experiment": "Kinase selectivity profiling at a single concentration (Carna Biosciences)", "type": "biochemical", "conditions": "22 nM"}, "LUAD-0057AS1 PDX": {"test_system": "LUAD-0057AS1 PDX", "experiment": "PDX efficacy study", "conditions": "50 mg/kg QD"}, "ECLC5 xenografts": {"test_system": "ECLC5 xenografts", "experiment": "Subcutaneous xenograft efficacy study", "conditions": "100 mg/kg QD"}, "[13]": {"conditions": "end of study, individual tumors"}},
  "note": "Values joined by “and” are separate entries in the source; they are usually repeats but may differ in a detail not shown here. Identical values can stand only once.",
  "data": [
    {"smiles": "CO[C@]1(C(=O)N[C@@H](C)c2ccc(-n3cc(F)cn3)nc2)CC[C@H](c2nc(C)cc(Nc3cc(C)[nH]n3)n2)CC1", "note": "[Pralsetinib]", "values": [
      {"measurement": "% Inhibiton KDR", "setting": "[1]", "result": 27.4, "unit": "%"},
      {"measurement": "% Inhibiton FGFR1", "setting": "[2]; 17 nM", "result": 57, "unit": "%"},
      {"measurement": "% Inhibiton FLT3", "setting": "[3]; 17 nM", "result": 73.3, "unit": "%"},
      {"measurement": "% Inhibiton RET", "setting": "[4]; 17 nM", "result": 96.7, "unit": "%"},
      {"measurement": "% Inhibiton FGFR3", "setting": "[5]; 17 nM", "result": 34.3, "unit": "%"},
      {"measurement": "% Inhibiton FGFR2", "setting": "[6]; 17 nM", "result": 29.4, "unit": "%"},
      {"measurement": "% Inhibiton DDR1", "setting": "[7]; 17 nM", "result": 72.1, "unit": "%"},
      {"measurement": "% Inhibiton PDGFRβ", "setting": "[8]; 17 nM", "result": 69.8, "unit": "%"}
    ]},
    {"smiles": "COc1ccc(CN2C3CC2CN(c2ccc(-c4cc(OCC(C)(C)O)cn5ncc(C#N)c45)cn2)C3)cn1", "note": "[Selpercatinib]", "values": [
      {"measurement": "median survival time", "setting": "[9]; 10 mg per kg BID", "result": "99 d of treatment"},
      {"measurement": "Area Under Curve Mean", "setting": "[9]; 10 mg/kg BID", "result": 27186332000},
      {"measurement": "Luminescence Data", "setting": "[9]; 10 mg/kg BID, treatment day 0 (=1)", "result": 1},
      {"measurement": "Luminescence Data", "setting": "[9]; 10 mg/kg BID, treatment day 5, day 0 = 1, 10 mg/kg", "result": "1.5865 and 1.821 and 1.255 and 0.4814 and 3.25 and 0.8886"},
      {"measurement": "Luminescence Data", "setting": "[9]; 10 mg/kg BID, treatment day 12, day 0 = 1, 10 mg/kg", "result": "3.019 and 2.275 and 2.308 and 0.7742 and 2.674 and 1.142"},
      {"measurement": "Luminescence Data", "setting": "[9]; 10 mg/kg BID, treatment day 18, day 0 = 1, 10 mg/kg", "result": "4.468 and 13.8627 and 3.677 and 17.2275 and 4.61 and 2.3303"},
      {"measurement": "Luminescence Data", "setting": "[9]; 10 mg/kg BID, treatment day 26, day 0 = 1, 10 mg/kg", "result": "4.838 and 8.783 and 2.8 and 90.8154 and 2.049 and 2.4586"},
      {"measurement": "Luminescence Data", "setting": "[9]; 10 mg/kg BID, treatment day 33, day 0 = 1, 10 mg/kg", "result": "19.3932 and 14.9637 and 7.347 and 180.944 and 3.353 and 5.483"},
      {"measurement": "Luminescence Data", "setting": "[9]; 10 mg/kg BID, treatment day 40, day 0 = 1, 10 mg/kg", "result": "20.6751 and 16.1418 and 17.1097 and 476.137 and 5.8 and 4.798"},
      {"measurement": "Luminescence Data", "setting": "[9]; 10 mg/kg BID, treatment day 46, day 0 = 1, 10 mg/kg", "result": "53.1577 and 52.4694 and 35.0274 and 881.545 and 19.3617 and 18.0494"},
      {"measurement": "Luminescence Data", "setting": "[9]; 10 mg/kg BID, treatment day 55, day 0 = 1, 10 mg/kg", "result": "200.4 and 271.183 and 155.59 and 1935.62 and 78.0003 and 75.6827"},
      {"measurement": "Luminescence Data", "setting": "[9]; 10 mg/kg BID, treatment day 61, day 0 = 1, 10 mg/kg", "result": "323.18 and 414.363 and 232.604 and 1527.04 and 186.289 and 64.6294"},
      {"measurement": "Luminescence Data", "setting": "[9]; 10 mg/kg BID, treatment day 68, day 0 = 1, 10 mg/kg", "result": "561.802 and 676.257 and 207.714 and 1673.82 and 333.171 and 210.62"},
      {"measurement": "Luminescence Data", "setting": "[9]; 10 mg/kg BID, treatment day 75, day 0 = 1, 10 mg/kg", "result": "570.505 and 1484.59 and 792.807 and 4751.93 and 432.014 and 174.469"},
      {"measurement": "Luminescence Data", "setting": "[9]; 10 mg/kg BID, treatment day 82, day 0 = 1, 10 mg/kg", "result": "999.294 and 1867.47 and 955.043 and 3557.94 and 547.305 and 464.239"},
      {"measurement": "% Inhibiton FGFR1", "setting": "[2]; 22 nM", "result": 21.4, "unit": "%"},
      {"measurement": "% Inhibiton FLT3", "setting": "[3]; 22 nM", "result": 52.5, "unit": "%"},
      {"measurement": "% Inhibiton CHK1", "setting": "[10]", "result": 15.2, "unit": "%"},
      {"measurement": "% Inhibiton RET", "setting": "[4]; 22 nM", "result": 98.6, "unit": "%"},
      {"measurement": "% Inhibiton EPHA7", "setting": "[11]", "result": 26.3, "unit": "%"},
      {"measurement": "% Inhibiton FGFR3", "setting": "[5]; 22 nM", "result": 35.9, "unit": "%"},
      {"measurement": "% Inhibiton FGFR2", "setting": "[6]; 22 nM", "result": 44.8, "unit": "%"},
      {"measurement": "% Inhibiton DDR1", "setting": "[7]; 22 nM", "result": 18, "unit": "%"},
      {"measurement": "% Inhibiton PDGFRβ", "setting": "[8]; 22 nM", "result": 21.7, "unit": "%"},
      {"measurement": "% Inhibiton TYRO3", "setting": "[12]", "result": 38.2, "unit": "%"}
    ]},
    {"smiles": "COc1cc2c(Nc3ccc(Br)cc3F)ncnc2cc1OCC1CCN(C)CC1", "note": "[Vandetanib]", "values": [
      {"measurement": "Area Under Curve Mean", "setting": "[9]; 50 mg/kg BID", "result": -890991750},
      {"measurement": "Area Under Curve of tumor growth, Mean", "setting": "LUAD-0057AS1 PDX", "result": -2007},
      {"measurement": "Tumor volume", "setting": "LUAD-0057AS1 PDX; day 0, individual animals", "result": "143.69 mm3 (3×) and 139.24 mm3 (2×) and 136.86 mm3 and 132.84 mm3 and 124.41 mm3"},
      {"measurement": "Tumor volume", "setting": "LUAD-0057AS1 PDX; day 3, individual animals", "result": "79.85 mm3 and 78.99 mm3 (2×) and 80.35 mm3 and 89.72 mm3 and 82.12 mm3 and 83.53 mm3 (2×)"},
      {"measurement": "Tumor volume", "setting": "LUAD-0057AS1 PDX; day 7, individual animals", "result": "65.45 mm3 (5×) and 66.76 mm3 (2×) and 69.46 mm3"},
      {"measurement": "Tumor volume", "setting": "LUAD-0057AS1 PDX; day 10, individual animals", "result": "52.07 mm3 (2×) and 58.99 mm3 and 57.83 mm3 (3×) and 56.67 mm3 and 49.83 mm3"},
      {"measurement": "Tumor volume", "setting": "LUAD-0057AS1 PDX; day 14, individual animals", "result": "52.07 mm3 (2×) and 55.52 mm3 and 57.83 mm3 (2×) and 56.67 mm3 and 49.83 mm3"},
      {"measurement": "Tumor volume", "setting": "LUAD-0057AS1 PDX; day 19, individual animals", "result": 0, "unit": "mm3"},
      {"measurement": "Tumor volume", "setting": "LUAD-0057AS1 PDX; day 23, individual animals", "result": 0, "unit": "mm3"},
      {"measurement": "Change in Tumor Volume", "setting": "LUAD-0057AS1 PDX; [13]", "result": -100, "unit": "%"},
      {"measurement": "Area Under Curve of tumor growth, Mean", "setting": "ECLC5 xenografts", "result": -1273},
      {"measurement": "Tumor volume", "setting": "ECLC5 xenografts; day 0, individual animals", "result": "83.83 mm3 (2×) and 88.56 mm3 and 87.03 mm3"},
      {"measurement": "Tumor volume", "setting": "ECLC5 xenografts; day 4, individual animals", "result": "55.4 mm3 (2×) and 45.5 mm3 and 53.01 mm3 and 50.68 mm3"},
      {"measurement": "Tumor volume", "setting": "ECLC5 xenografts; day 7, individual animals", "result": "42.25 mm3 and 37.7 mm3 and 44.53 mm3 and 41.37 mm3 and 39.37 mm3"},
      {"measurement": "Tumor volume", "setting": "ECLC5 xenografts; day 11, individual animals", "result": "38.54 mm3 and 37.7 mm3 and 44.53 mm3 and 33.69 mm3 and 31.89 mm3"},
      {"measurement": "Tumor volume", "setting": "ECLC5 xenografts; day 14, individual animals", "result": "36.02 mm3 and 36.86 mm3 and 35.19 mm3 and 28.86 mm3 and 23.59 mm3"},
      {"measurement": "Tumor volume", "setting": "ECLC5 xenografts; day 19, individual animals", "result": "34.35 mm3 and 31 mm3 and 35.19 mm3 and 28.86 mm3 and 18.85 mm3"},
      {"measurement": "Tumor volume", "setting": "ECLC5 xenografts; day 22, individual animals", "result": "0 mm3 (4×) and 29.39 mm3"},
      {"measurement": "Tumor volume", "setting": "ECLC5 xenografts; day 25, individual animals", "result": 0, "unit": "mm3"},
      {"measurement": "Change in Tumor Volume", "setting": "ECLC5 xenografts; [13]", "result": -100, "unit": "%"}
    ]}
  ]
}
